# Test results reported in patent US20060073541A1, “Lipophilic dyes and their application for detection of myelin” (priority 2004, published 2006).
# Assays:
# myelin [1] = test: Detection of myelin in combination with antibodies (anti-GFAP) and DAPI on mouse brain cryosection
# Experimental: To test whether use of Compound 1 interrupts antibody binding, Compound 1 was used in conjunction with anti-GFAP on mouse brain sections. A 16 μm mouse brain cryosection, cross-section through the rostral mesencephalon, was rehydrated and permeabilized in PBT (0.05 M phosphate buffered saline with 0.2% Triton X-100 and 0.2% BSA) for 20 minutes, the washed for 30 minutes with Image-iT FX Signal Enhancer (Molecular Probes, Inc.) to block non-specific Alexa Fluor dye binding to myelin. After washing in PBT, the section was blocked for 1 hour in 5% normal goat serum/0.2% Triton X-100/3% BSA, then incubated overnight at 4° C. in 5 μg/ml mouse anti-GFAP (glial fibrillary acidic protein) from Molecular Probes (A21282) in blocking buffer. Sections were washed well in PBT, then incubated in Alexa Fluor 680 goat anti-mouse secondary antibody (A21057, Molecular Probes, Inc.) for 2 hours. After washing in PBT, sections were labeled in 500 nM of Compound 1 for 20 minutes with 0.1 μg/ml DAPI. After a final wash in PBT, sections were mounted in Prolong antifade mountant (Molecular Probes, inc.). Images were collected on a Nikon E800 epifluorescence upright microscope using a Princeton MicroMax cooled CCD digital camera, MetaMorph acquisition software, and Adobe Photoshop image analysis software.
# myelin [2] = test: Myelin staining of mouse brain cryosections, label pattern comparison; settings: for labeling of myelin (selectivity): 1 μM or 500 nM in PBS; for myelin label pattern / non-specific background labeling / single axon labeling: 16 μm mouse brain cryosections, dyes 500 nM 20 minutes; for myelin label pattern: sagittal and cross sections, anti-MBP 5 μg/ml overnight; for emission wavelength (Em) / excitation wavelength (Ex): dye on labeled mouse brain cryosections
# Experimental: In an exemplary embodiment, the present method stains and detects myelin in brain tissue sections that have been immobilized on a glass slide. In this instance a protocol for labeling brain cryosections comprises: • 1. Rehydrate and/or Permeabilize. Bring tissue sections on slides to room temperature, then rehydrate in either PBS (phosphate-buffered saline, 0.05M, pH 7.4) or PBT (PBS+0.2% Triton X-100) for at least 20 minutes. Permeabilization with Triton X-100 is not necessary for labeling using the present lipophilic dyes, but is likely necessary for any other counterstains or antibodies to be used. • 2. Prepare Label Solution. Prepare the labeling solution by diluting the stock solution 300-fold with PBS to make a final recommended concentration of 500 nM dye. • 3. Label Step. Flood the section with labeling solution and stain for 20 minutes at room temperature. • 4. Wash. When labeling is complete, remove solution, rinse in PBS, and wash 3×10 minutes with PBS. • 5. Counterstaining and Mounting. At this point tissues can be counterstained as necessary, or mounted with an aqueous antifade mounting medium such as ProLong or ProLong Gold reagent.
# Use of this antibody allows for specific labeling with which to compare the present lipophilic dyes and chromogenic method label patterns. […] Tissue was sectioned on a cryostat and mounted on Plus slides and stored at −80° C. Upon use, tissue sections were brought to room temperature and rehydrated in PBT (0.5 M phosphate-buffered saline containing 0.2% Triton X-100 and 0.2% BSA) for 30 minutes. Sections were blocked for 1 hour in 5% normal goat serum/3% BSA/PBT, then labeled overnight at 4° using 5 μg/ml rat anti-MBP primary antibody from Chemicon (MAB386). After washing in PBT, tissues were washed in Image-iT FX signal enhancer (136933, Molecular Probes, Inc., Eugene, Oreg.) for 30 minutes, then washed again in PBT. Sections were incubated in Alexa Fluor 488 goat anti-rat secondary antibody (A11006, Molecular Probes, Inc.) for 2 hours, washed in PBT, and mounted in ProLong antifade solution (P7481, Molecular Probes, Inc.). Images were collected on a Nikon E800 epifluorescence upright microscope using a Princeton MicroMax cooled CCD digital camera, MetaMorph acquisition software, and Adobe Photoshop image analysis software (Ex 495/Em 519, FITC Filter Set).
# Other than antibody labeling techniques, myelin labeling is traditionally performed using long and complicated chromogenic (non-fluorescent) dye protocols. One of the most common is the Loyez Technique. A more recent, and more specific method is Schmued's Gold Chloride Technique. These two methods were used for comparison to the present dyes. • I. Schmued's Gold Chloride Technique. Based on a method by Laurence C. Schmued [1990. A rapid, sensitive histochemical stain for myelin in frozen brain sections. J. Histochem Cytochem. 38(5): 717-720]. Tissues were rehydrated in PBT for 30 minutes, then labeled for 3.5 hours in 0.2% gold chloride in 0.02 M neutral phosphate buffer with 0.9% sodium chloride. After a water rinse, tissues were post-fixed for 5 minutes in 2.5% sodium thiosulfate, rinsed in running tap water for 30 minutes, and mounted in mowiol. Images were collected using transmitted light on the system outlined in part A of this example. Myelin was labeled a brown-red color. […] Loyez Technique. Adapted from H. C. Cook. 1974. […] London: Butterworths. pp. 161-162. Tissues were rehydrated and permeabilized 30 minutes in PBT, then treated with 4% iron alum overnight at room temperature. After a water wash, tissues were stained overnight in a 10% alcoholic haematoxylin solution with lithium carbonate at room temperature. After two 10-minute water washes, tissues were destained for approximately 20 seconds in 4% iron alum, and washed in water. After a final wash in borax-ferricyanide to colorize the myelin blue-black, tissues were washed in water and mounted in mowiol. Images were scanned as in section B. I. Of this example. […]
# myelin [3] = test: Myelin staining in combination with NeuroTrace Nissl stains and DAPI on mouse brain cryosections; settings: 500 nM dye, NeuroTrace Nissl stain 1:300, DAPI
# Experimental: (§1) A 16 μm mouse brain cryosection, cross section through diencephalon, was rehydrated for 20 minutes in PBT (0.5 M phosphate-buffered saline containing 0.2% Triton X-100 and 0.2% BSA). The three dyes were mixed into the final stain solution (in PBS), such that there was a concentration of 500 nM of Compound 1, 1:300 dilution of NeuroTrace Red Nissl Stain, and 0.1 μg/ml DAPI. Sections were labeled in this combination for 20 minutes, then washed well in PBT prior to mounting in Prolong antifade mounting medium (Molecular Probes, Inc.). Images were collected on a Nikon E800 epifluorescence upright microscope using a Princeton MicroMax cooled CCD digital camera, MetaMorph acquisition software, and Adobe Photoshop image analysis software.
# as §1, with “(0.5M” for “(0.5 M”, “nM” for “nM of”, “2,” for “1,”
# 12 μm thick mouse brain cryosections, either cross-sectioned through the mesencephalon or sagittal sections, were rehydrated and permeabilized for 20 minutes in PBT (PBS with 0.2% Triton X-100 and 0.2% BSA) then labeled 30 minutes with 500 nM Compound 4 in PBS. Sections were washed 3×10 minutes with PBT then labeled 20 minutes with NeuroTrace Green Nissl Stain (diluted 1:300 from stock). Sections were washed 3×5 minutes in PBS, labeled 1.5 minutes with 0.2 μg/mL DAPI, washed 3×5 minutes in PBS again, and mounted in Prolong Gold antifade mounting medium. Samples were compared to sections labeled with Compound 1 and Compound 2 as controls. Images were collected on a Nikon E800 epifluorescence upright microscope using a Princeton MicroMax cooled CCD digital camera, MetaMorph acquisition software, and Adobe Photoshop image analysis software.
# myelin [4] = test: Demyelinated mouse model test: control versus shiverer mouse brain cryosections
# Experimental: To illustrate the use of the present dyes for studying myelin diseases such as multiple sclerosis, adrenoleukodystrophy, Guillain-Barre syndrome, and others, Compound 1 was compared against rat anti-myelin basic protein (anti-MBP) primary antibody on control mouse brains versus shiverer mouse brain. […] Brain tissues were cryosectioned at 16 μm and mounted on PLUS slides. Control and shiverer tissues were treated either with anti-MBP primary and Alexa Fluor 488 goat anti-rat secondary or Compound 1. Tissues treated with the antibody were rehydrated and permeabilized in PBT (0.05 M phosphate buffered saline with 0.2% Triton X-100 and 0.2% bovine serum albumin (BSA)) for 20 minutes, then blocked in 5% normal goat serum/3% BSA/PBT for 1 hour. Tissues were then incubated overnight at 4° C. with 5 μg/mL rat anti-MBP (Chemicon, MAB386) in blocking solution. After washing 3×10 minutes in PBT, they were then incubated for 2 hours with 5 μg/mL Alexa Fluor 488 goat anti-rat secondary at room temperature. After further washing 3×10 minutes in PBT, tissues were counterstained with 0.2 μg/ml DAPI, washed 3×5 minutes in PBT, and mounted with ProLong antifade mounting medium (Invitrogen P36930). Tissues that were labeled with Compound 1 were rehydrated and permeabilized as above, then labeled 20 minutes with 500 nM Compound 1 and 0.2 μg/mL DAPI (together) in PBT. Tissues were washed 3×10 minutes PBT, then mounted as above. Images were collected on a Nikon E800 epifluorescence upright microscope using a Princeton MicroMax cooled CCD digital camera, an Omega XF100-2 FITC filter set, MetaMorph acquisition software, and Adobe Photoshop image analysis software. […] Myelin labeling was negative, as expected, for shiverer mice for both anti-MBP and Compound 1, illustrating that the present dyes work as well as anti-MBP for demyelination determination.
SMILES,"label pattern in conjunction with anti-GFAP (myelin [1]; 500 nM 20 minutes with 0.1 μg/ml DAPI after anti-GFAP / Alexa Fluor 680 secondary, rostral mesencephalon cross-section)",inhibition of staining pattern (myelin [1]; 500 nM dye with anti-GFAP antibody labeling),labeling of myelin (selectivity) (myelin [2]; 12 μm mouse brain cryosections),myelin label pattern (myelin [2]),non-specific background labeling (myelin [2]),single axon labeling (myelin [2]),emission wavelength (Em) (myelin [2]) [nm],excitation wavelength (Ex) (myelin [2]) [nm],disruption of labels / compatibility with NeuroTrace Nissl stain and DAPI (myelin [3]),label pattern in combination with NeuroTrace Nissl stain and DAPI (myelin [3]),staining brightness compared with anti-MBP (myelin [4]; control mice brain),"myelin labeling in control mice (myelin [4]; control mice brain, 16 μm cryosections, 500 nM dye 20 minutes or 5 μg/mL anti-MBP overnight)",background labeling (myelin [4]; general membrane labeling),"myelin labeling in shiverer mice (myelin [4]; shiverer (demyelinated) mouse brain, 16 μm cryosections)",spectral qualities (myelin [2]; 12 μm mouse brain cryosections),"concentration sufficient for labeling with minimal background (myelin [2]; 12 μm mouse brain cryosections, in PBS) [nM]"
CCCCN(CCCC)c1ccc(C=Cc2cc[n+](CCC[N+](CC)(CC)CC)cc2)cc1 [Compound 1],labeled axon tracts and bundles,no inhibition of staining pattern by either label,selective myelin labeling,specific myelin labeling in expected axon bundles and tracts,some non-specific background labeling was visualized,single axon labeling was not seen,594,479,no evidence of disruption of any of the three labels,"tracts in the fornix, fornix superior, capsula interna, and striatum",twice as bright,labeled myelin in control mice,slight background labeling,negative,,
CCCCN(CCCC)c1ccc(C=CC=CC=Cc2cc[n+](CCC[N+](CC)(CC)CC)cc2)cc1 [Compound 2],,,selective myelin labeling,specific myelin labeling in expected axon bundles and tracts,some non-specific background labeling was visualized,single axon labeling was not seen,734,558,no evidence of disruption of any of the three labels,"tracts in the fornix, fornix superior, capsula interna, and striatum",,,,,,
CCCCN(CCCC)c1ccc(C=CC=CC=Cc2cc[n+](CCC[N+](C)(C)C)cc2)cc1 [Compound 4],,,highly selective labeling of myelin,,,,,,compatible with NeuroTrace Green Nissl Stain labeling and DAPI labeling,label pattern comparable to the control dyes,,,,,comparable to Compound 2,500
